Source: patent US10472333B2, “P2X4 receptor antagonist” (NIPPON CHEMIPHAR CO., LTD., priority 2013, dated 2019)

Columns and labels:
[1] = target: T1, Rat P2X3 (Rattus norvegicus, UniProt P49654); test: P2X receptor family selectivity, calcium imaging method using cells expressing the receptor; format: cell-based
T1 construct: host or cells: cells expressing the receptor
T1 sequence (P49654 1-397): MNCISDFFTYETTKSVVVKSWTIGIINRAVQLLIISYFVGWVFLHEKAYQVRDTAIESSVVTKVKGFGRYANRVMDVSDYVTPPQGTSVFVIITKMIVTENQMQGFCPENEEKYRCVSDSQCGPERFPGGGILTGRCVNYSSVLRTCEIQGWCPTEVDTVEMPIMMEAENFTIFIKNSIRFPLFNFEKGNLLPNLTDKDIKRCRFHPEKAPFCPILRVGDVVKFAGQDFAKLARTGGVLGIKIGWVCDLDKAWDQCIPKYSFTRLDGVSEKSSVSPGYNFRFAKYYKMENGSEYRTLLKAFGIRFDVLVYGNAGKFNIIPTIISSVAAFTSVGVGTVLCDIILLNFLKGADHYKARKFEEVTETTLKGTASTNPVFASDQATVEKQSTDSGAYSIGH

[2] = tested on: rat neuropathic pain model (modified Chung model); test: Analgesic activity, rat neuropathic pain model (modified Chung model), von Frey filament test; format: in vivo
Procedure: The analgesic activity of the compound of the present invention was measured by the following method.
Rat neuropathic pain model (modified Chung model) was prepared according to the method of Kim, S. H., Chung, J. M. et al. (An experimental model for peripheral neuropathy produced by segmental spinal nerve ligation in the rat, Pain, 50, 355-363 (1992)). More specifically; under isoflurane anesthesia, back hair of rats was extensively shaved, the shaved parts were wiped with rubbing alcohol, the rats were fixed in the prone position on a heating pad, and the skins were cut and opened along the dorsal median line on the upper and lower sides of the sacroiliac bone. The left lateral paravertebral muscle was separated in the sacral region, and then the ligament was separated. […]
The pain threshold (paw withdrawal threshold (g)) was measured by stimulating the soles of rats with each of seven von Frey filaments (Stoelting Co., TOUCH-TEST SENSORY EVALUATOR) that gave different stimulation strengths, and determining presence or absence of withdrawal response. The 50% threshold was calculated according to the up down method with reference to the method of Chaplan et al. (Chaplan S R, Bach F W, Pogrel J W, Chung J M, Yaksh T L: Quantitative assessment of tactile allodynia in the rat paw, J. Neurosci. Method, 53:55-63 (1994)). […]

[3] = target: T2, Human P2X7 (Homo sapiens, UniProt Q99572); test: P2X receptor family selectivity, calcium imaging method using cells expressing the receptor; format: cell-based
T2 construct: host or cells: cells expressing the receptor
T2 sequence (Q99572 1-595): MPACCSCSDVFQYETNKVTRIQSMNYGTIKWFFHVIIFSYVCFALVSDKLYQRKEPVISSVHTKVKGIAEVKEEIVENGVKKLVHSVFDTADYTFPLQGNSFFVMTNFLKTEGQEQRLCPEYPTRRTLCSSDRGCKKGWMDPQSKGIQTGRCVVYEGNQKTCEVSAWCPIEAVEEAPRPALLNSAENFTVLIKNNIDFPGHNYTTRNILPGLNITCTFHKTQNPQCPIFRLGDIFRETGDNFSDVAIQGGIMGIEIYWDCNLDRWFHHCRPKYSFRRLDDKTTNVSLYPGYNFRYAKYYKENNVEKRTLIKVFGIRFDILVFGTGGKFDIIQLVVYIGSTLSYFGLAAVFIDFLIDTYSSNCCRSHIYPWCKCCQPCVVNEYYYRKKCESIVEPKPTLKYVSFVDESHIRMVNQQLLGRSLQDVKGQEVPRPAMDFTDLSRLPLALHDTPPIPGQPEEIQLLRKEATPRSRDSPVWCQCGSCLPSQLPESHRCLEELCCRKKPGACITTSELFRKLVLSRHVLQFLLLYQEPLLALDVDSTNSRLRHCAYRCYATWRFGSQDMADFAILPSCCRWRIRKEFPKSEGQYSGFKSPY

[4] = target: T3, Rat P2X7 (Rattus norvegicus, UniProt Q64663); test: as above; format: cell-based
T3 construct: host or cells: cells expressing the receptor
T3 sequence (Q64663 1-595): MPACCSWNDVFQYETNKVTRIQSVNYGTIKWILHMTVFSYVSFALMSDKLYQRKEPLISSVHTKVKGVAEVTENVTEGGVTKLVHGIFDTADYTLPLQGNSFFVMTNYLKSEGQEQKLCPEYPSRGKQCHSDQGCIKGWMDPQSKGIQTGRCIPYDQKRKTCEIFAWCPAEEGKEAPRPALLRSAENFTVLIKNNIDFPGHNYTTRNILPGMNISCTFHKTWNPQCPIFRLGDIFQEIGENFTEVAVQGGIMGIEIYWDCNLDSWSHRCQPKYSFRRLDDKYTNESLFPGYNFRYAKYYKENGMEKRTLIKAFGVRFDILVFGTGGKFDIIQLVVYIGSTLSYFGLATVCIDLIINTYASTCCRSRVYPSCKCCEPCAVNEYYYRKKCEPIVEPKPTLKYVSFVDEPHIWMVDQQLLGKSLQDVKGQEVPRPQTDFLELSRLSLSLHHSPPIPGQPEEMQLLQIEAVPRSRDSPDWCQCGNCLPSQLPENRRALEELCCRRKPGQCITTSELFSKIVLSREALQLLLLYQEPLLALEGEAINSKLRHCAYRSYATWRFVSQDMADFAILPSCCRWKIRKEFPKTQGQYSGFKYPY

[5] = target: T4, human P2X4 receptor (Homo sapiens, UniProt Q99571); test: P2X4 receptor antagonist activity, ATP-induced intracellular calcium (Fura-2 AM) in 1321N1 cells stably expressing human P2X4 receptor; format: cell-based; conditions: among human, mouse, and rat
T4 sequence (Q99571 1-388): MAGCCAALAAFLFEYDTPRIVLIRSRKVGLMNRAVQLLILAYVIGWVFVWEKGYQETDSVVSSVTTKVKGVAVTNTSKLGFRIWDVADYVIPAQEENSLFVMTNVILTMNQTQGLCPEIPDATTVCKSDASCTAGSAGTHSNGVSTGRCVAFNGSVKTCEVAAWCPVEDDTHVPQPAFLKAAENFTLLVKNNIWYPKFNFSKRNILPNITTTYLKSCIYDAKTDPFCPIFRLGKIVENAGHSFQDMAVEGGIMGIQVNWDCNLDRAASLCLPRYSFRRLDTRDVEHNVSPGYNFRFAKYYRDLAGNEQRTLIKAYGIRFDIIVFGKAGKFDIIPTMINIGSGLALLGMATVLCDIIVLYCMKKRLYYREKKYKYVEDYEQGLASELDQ

[6] = target: T5, Rat P2X4 (Rattus norvegicus, UniProt P51577); test: P2X receptor family selectivity, calcium imaging method using cells expressing the receptor; format: cell-based
T5 construct: host or cells: cells expressing the receptor
T5 sequence (P51577 1-388): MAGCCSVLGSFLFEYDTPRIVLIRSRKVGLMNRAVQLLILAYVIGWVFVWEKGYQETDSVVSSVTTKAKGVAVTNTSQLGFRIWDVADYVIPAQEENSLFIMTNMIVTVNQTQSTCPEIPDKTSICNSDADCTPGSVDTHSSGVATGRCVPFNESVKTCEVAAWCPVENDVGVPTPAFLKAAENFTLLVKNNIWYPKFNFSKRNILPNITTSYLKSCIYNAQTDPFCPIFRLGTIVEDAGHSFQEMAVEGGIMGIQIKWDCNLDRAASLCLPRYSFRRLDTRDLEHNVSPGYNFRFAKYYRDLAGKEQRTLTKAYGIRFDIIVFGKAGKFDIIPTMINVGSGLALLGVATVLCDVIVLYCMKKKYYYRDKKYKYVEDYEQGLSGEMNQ
From the text: (§1) The inhibitory activities of the compound against the rat and mouse P2X4 receptors were also confirmed.

[7] = target: T6, Mouse P2X4 (Mus musculus, UniProt Q9JJX6); test: as above; format: cell-based
T6 construct: host or cells: cells expressing the receptor
T6 sequence (Q9JJX6 1-388): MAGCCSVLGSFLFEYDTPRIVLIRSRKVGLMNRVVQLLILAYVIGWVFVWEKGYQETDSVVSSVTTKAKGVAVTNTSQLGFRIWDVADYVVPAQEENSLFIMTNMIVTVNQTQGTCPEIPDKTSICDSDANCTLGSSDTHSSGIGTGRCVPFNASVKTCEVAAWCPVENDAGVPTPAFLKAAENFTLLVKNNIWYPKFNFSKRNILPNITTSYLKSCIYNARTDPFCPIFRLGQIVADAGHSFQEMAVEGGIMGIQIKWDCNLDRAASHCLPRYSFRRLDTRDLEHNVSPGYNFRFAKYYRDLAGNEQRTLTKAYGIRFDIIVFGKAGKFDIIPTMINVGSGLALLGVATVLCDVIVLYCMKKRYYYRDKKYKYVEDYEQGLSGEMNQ
From the text: as §1

## CN(C)c1ncccc1C(=O)Nc1ccc(C2=NCC(=O)Nc3c2ccc2ccccc32)cc1.Cl.Cl [Example 15, 2-(Dimethylamino)-N-[4-(2-oxo-2,3-dihydro-1H-naphtho[1,2-e][1,4]diazepin-5-yl)phenyl]nicotinamide dihydrochloride]
[1]
  IC50: 6.8 µM
[2]; rat modified Chung model, 30 mg/kg orally twice a day (60 mg/kg/day) for 14 days from day 9 after operation, measured 3 hours after administration, vs. vehicle group
  pain threshold of the affected limb (von Frey filament test): increased
[2]; rat neuropathic pain model (modified Chung model)
  analgesic activity: superior analgesic activity
[3]
  IC50: > 30 µM
[4]
  IC50: > 30 µM
[5]
  Species-specific difference of the P2X4 receptor inhibitory activity: not observed
[6]
  IC50: 1.3 µM
[7]
  IC50: 0.52 µM
